A word on the ED50: it is the midpoint of the dose-response relation. In general, IC50 refers to the concentration that inhibits the measured activity by half.

One assay concerns db/db mice. Kind of assay: Efficacy animal model of diabetic nephropathy (albuminuria, uninephrectomized db/db mice). To be noted: oral gavage twice a day. The assay is classed as in vivo, mouse. The text has this: The purpose of this assay is to analyze compound efficacy in a mouse model of diabetic nephropathy. The earliest clinical manifestation of diabetic nephropathy is albuminuria, leakage of albumin in the urine. Because diabetic nephropathy can be present without any symptoms, early diagnosis is critical so that treatment can be started. The key test for early diagnosis of diabetic nephropathy involves checking for the presence of albuminuria. Thus, if a compound reduces albumin levels in the urine in a diabetic patient, it would likely indicate efficacy of the compound in the treatment of diabetic nephropathy. To model diabetic nephropathy, a combination of genetically driven type 2 diabetes and uninephrectomy is utilized. Six week-old db/db mice (genetic strain: C57 BL KsJ, ChemPartner, Shanghai) receive standard rodent chow and water ad libitum. The left kidney is removed under anesthesia with 0.6% sodium pentobarbital at 60 mg/kg body weight (10 μL/g i.p.). Seven days after surgery, urine is collected for 24 h in a metabolic cage to measure albuminuria levels and blood is collected by tail snip to determine glucose levels. For compound treatment, the animals are randomized based on 24-h albuminuria, blood glucose, and body weight. A test compound is dissolved in 4% DMSO (aqueous) and administered twice a day by oral gavage. […] During the treatment period, albuminuria is analyzed monthly. […]

Another assay has as its target T1, human PKCι (Homo sapiens, UniProt P41743).
T1 sequence (P41743 1-596): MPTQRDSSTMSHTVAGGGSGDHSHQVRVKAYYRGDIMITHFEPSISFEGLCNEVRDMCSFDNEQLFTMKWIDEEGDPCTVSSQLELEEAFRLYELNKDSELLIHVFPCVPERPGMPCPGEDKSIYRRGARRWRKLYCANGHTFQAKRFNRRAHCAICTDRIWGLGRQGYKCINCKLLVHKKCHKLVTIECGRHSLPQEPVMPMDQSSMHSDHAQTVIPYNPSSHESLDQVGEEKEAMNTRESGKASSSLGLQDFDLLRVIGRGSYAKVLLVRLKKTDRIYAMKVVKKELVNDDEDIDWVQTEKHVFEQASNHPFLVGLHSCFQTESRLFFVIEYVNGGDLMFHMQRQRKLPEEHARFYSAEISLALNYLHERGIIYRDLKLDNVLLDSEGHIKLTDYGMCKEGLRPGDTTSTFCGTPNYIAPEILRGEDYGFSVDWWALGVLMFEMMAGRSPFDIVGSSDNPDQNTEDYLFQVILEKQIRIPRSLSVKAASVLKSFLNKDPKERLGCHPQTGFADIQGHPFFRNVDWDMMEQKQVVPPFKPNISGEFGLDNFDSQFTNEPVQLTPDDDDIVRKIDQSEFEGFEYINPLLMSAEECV
Nature of the assay: PKC isoforms based HTRF KinEASE-STK assay, PKCι. Format: biochemical. As to conditions: 87.5 μM ATP in substrate mix, 70 min. An excerpt:
The purpose of this assay is to evaluate the inhibitory activity of compounds on various PKC isoforms. It has been reported that perturbations in vascular cell homeostasis caused by different PKC isoforms (PKC-α, β1/2, and PKC-δ) are linked to the development of pathologies affecting large vessel (atherosclerosis, cardiomyopathy) and small vessel (retinopathy, nephropathy, and neuropathy) complications. Geraldes, P. and King, G. L., “Activation of Protein Kinase C Isoforms and Its Impact on Diabetic Complications”, Cir.
Effects of a test compound on the kinase activity of PKCα, β2, δ, ε, ι, and ζ, are determined using a HTRF KINEASE™-STK assay kit (Cisbio) in accordance with the protocol provided by the vendor. It is a general method for measuring Serine/Threonine kinase activities using kinase substrates and a universal detection system. In the current protocol, biotinilated STK1provided in the assay kit is used as the substrate that can be phosphorylated by any PKC isoform. The HTRF KINEASE™-STK assay kit format involves the two steps (Enzymatic step and Detection step) described below. First, the kinase phosphorylates the substrate in the presence of ATP. Second, the detection reagents provided in the assay kit recognize the phosphorylated substrate.

For the molecule `C[C@@H]1CN(C(=O)c2cc(-c3c(F)cc(O)cc3F)cc3cnsc23)C[C@H](C)N1.Cl` [Example 2, 4-(7-{[(3R,5 S)-3,5-DIMETHYLPIPERAZIN-1-YL]CARBONYL}-1,2-BENZOTHIAZOL-5-YL)-3,5-DIFLUOROPHENOL HYDROCHLORIDE], in the assay with db/db mice (Mus musculus, uninephrectomized db/db mice, read-out: ED50, reduction of albuminuria), the ED50 is around 25.3 mg/kg. Besides, the “actual mean levels of albumin in the urine (collected during 24 hours)” value with db/db mice (db/db mice, dose of 30 mg/kg) amounted to 85.0 ± 6.9 µg. This molecule also registered a half-maximal inhibitory concentration (IC50) at human PKCι above 20 µM.

These data come from patent publication US20170246166A1, “1,2-BENZOTHIAZOLE COMPOUNDS FOR THE TREATMENT OF KIDNEY DISORDERS” (priority 2014, published 2017).
